Reference: ChEMBL document CHEMBL4270599, “Synthesis of a 3'-C-ethynyl-β-d-ribofuranose purine nucleoside library: Discovery of C7-deazapurine analogs as potent antiproliferative nucleosides” (Eur J Med Chem, 2018)

Key:
Format in all cases: functional
[1] = tested on: A498; assay: Growth inhibition of human A498 cells assessed as cell growth at 10^-6 M incubated for 48 hrs by sulforhodamine B assay relative to control; conditions: A498, 48 h, read-out: Activity
[2] = tested on: HOP-92; assay: Cytotoxicity against human HOP92 cells after 48 hrs by SRB assay; conditions: HOP-92, 48 h
[3] = tested on: Malme-3M; assay: Growth inhibition of human MALME-3M cells assessed as cell growth at 10^-8 M incubated for 48 hrs by sulforhodamine B assay relative to control; conditions: read-out: Activity
[4] = tested on: HOP-92; assay: Growth inhibition of human HOP92 cells assessed as cell growth at 10^-6 M incubated for 48 hrs by sulforhodamine B assay relative to control; conditions: HOP-92, 48 h, read-out: Activity
[5] = tested on: HCT-15; assay: Growth inhibition of human HCT15 cells assessed as cell growth at 10^-4 M incubated for 48 hrs by sulforhodamine B assay relative to control; conditions: HCT-15, 48 h, read-out: Activity
[6] = tested on: HOP-92; assay: Growth inhibition of human HOP92 cells assessed as cell growth at 10^-7 M incubated for 48 hrs by sulforhodamine B assay relative to control; conditions: HOP-92, 48 h, read-out: Activity
[7] = tested on: UO-31; assay: Growth inhibition of human UO31 cells assessed as cell growth at 10^-6 M incubated for 48 hrs by sulforhodamine B assay relative to control; conditions: UO-31, 48 h, read-out: Activity
[8] = tested on: UACC-257; assay: Growth inhibition of human UACC257 cells assessed as cell growth at 10^-6 M incubated for 48 hrs by sulforhodamine B assay relative to control; conditions: UACC-257, 48 h, read-out: Activity
[9] = tested on: HOP-92; assay: Growth inhibition of human HOP92 cells assessed as cell growth at 10^-8 M incubated for 48 hrs by sulforhodamine B assay relative to control; conditions: HOP-92, 48 h, read-out: Activity
[10] = tested on: NCI/ADR-RES; assay: Cytotoxicity against human NCI-ADR-RES cells after 48 hrs by SRB assay
[11] = tested on: SK-MEL-5; assay: Growth inhibition of human SK-MEL-5 cells assessed as cell growth at 10^-6 M incubated for 48 hrs by sulforhodamine B assay relative to control; conditions: SK-MEL-5, 48 h, read-out: Activity
[12] = tested on: SF-295; assay: Growth inhibition of human SF295 cells assessed as cell growth at 10^-8 M incubated for 48 hrs by sulforhodamine B assay relative to control; conditions: SF-295, 48 h, read-out: Activity
[13] = tested on: SW-620; assay: Growth inhibition of human SW620 cells assessed as cell growth at 10^-6 M incubated for 48 hrs by sulforhodamine B assay relative to control; conditions: SW-620, 48 h, read-out: Activity
[14] = tested on: HL-60(TB); assay: Growth inhibition of human HL-60(TB) cells assessed as cell growth at 10^-5 M incubated for 48 hrs by sulforhodamine B assay relative to control; conditions: HL-60, 48 h, read-out: Activity
[15] = tested on: OVCAR-3; assay: Growth inhibition of human OVCAR3 cells assessed as cell growth at 10^-4 M incubated for 48 hrs by sulforhodamine B assay relative to control; conditions: OVCAR-3, 48 h, read-out: Activity
[16] = tested on: SF-295; assay: Cytotoxicity against human SF295 cells after 48 hrs by SRB assay; conditions: SF-295, 48 h
[17] = tested on: HCT-116; assay: Growth inhibition of human HCT116 cells assessed as cell growth at 10^-8 M incubated for 48 hrs by sulforhodamine B assay relative to control; conditions: HCT-116, 48 h, read-out: Activity
[18] = tested on: KM12; assay: Growth inhibition of human KM12 cells assessed as cell growth at 10^-6 M incubated for 48 hrs by sulforhodamine B assay relative to control; conditions: KM12, 48 h, read-out: Activity
[19] = tested on: NCI-H522; assay: Growth inhibition of human NCI-H522 cells assessed as cell growth at 10^-7 M incubated for 48 hrs by sulforhodamine B assay relative to control; conditions: NCI-H522, 48 h, read-out: Activity
[20] = tested on: UACC-257; assay: Growth inhibition of human UACC257 cells assessed as cell growth at 10^-8 M incubated for 48 hrs by sulforhodamine B assay relative to control; conditions: UACC-257, 48 h, read-out: Activity
[21] = tested on: NCI-H322M; assay: Growth inhibition of human NCI-H322M cells assessed as cell growth at 10^-5 M incubated for 48 hrs by sulforhodamine B assay relative to control; conditions: read-out: Activity
[22] = tested on: NCI/ADR-RES; assay: Growth inhibition of human NCI/ADR-RES cells assessed as cell growth at 10^-5 M incubated for 48 hrs by sulforhodamine B assay relative to control; conditions: read-out: Activity
[23] = tested on: U-251; assay: Growth inhibition of human U251 cells assessed as cell growth at 10^-8 M incubated for 48 hrs by sulforhodamine B assay relative to control; conditions: U-251, 48 h, read-out: Activity
[24] = tested on: CCRF-CEM; assay: Growth inhibition of human CCRF-CEM cells assessed as cell growth at 10^-6 M incubated for 48 hrs by sulforhodamine B assay relative to control; conditions: read-out: Activity
[25] = tested on: BT-549; assay: Growth inhibition of human BT549 cells assessed as cell growth at 10^-6 M incubated for 48 hrs by sulforhodamine B assay relative to control; conditions: BT-549, 48 h, read-out: Activity
[26] = tested on: LOX IMVI; assay: Growth inhibition of human LOXIMVI cells assessed as cell growth at 10^-8 M incubated for 48 hrs by sulforhodamine B assay relative to control; conditions: read-out: Activity
[27] = tested on: HCT-15; assay: Growth inhibition of human HCT15 cells assessed as cell growth at 10^-6 M incubated for 48 hrs by sulforhodamine B assay relative to control; conditions: HCT-15, 48 h, read-out: Activity
[28] = tested on: NCI-H460; assay: Cytotoxicity against human NCI-H460 cells after 48 hrs by SRB assay; conditions: NCI-H460, 48 h
[29] = tested on: SK-MEL-28; assay: Growth inhibition of human SK-MEL-28 cells assessed as cell growth at 10^-6 M incubated for 48 hrs by sulforhodamine B assay relative to control; conditions: SK-MEL-28, 48 h, read-out: Activity
[30] = tested on: HCT-15; assay: Growth inhibition of human HCT15 cells assessed as cell growth at 10^-8 M incubated for 48 hrs by sulforhodamine B assay relative to control; conditions: HCT-15, 48 h, read-out: Activity
[31] = tested on: M14; assay: Growth inhibition of human M14 cells assessed as cell growth at 10^-6 M incubated for 48 hrs by sulforhodamine B assay relative to control; conditions: M14, 48 h, read-out: Activity
[32] = read-out: pLC50 (the source's name) (converted)

C#C[C@@]1(O)[C@@H](CO)O[C@@H](n2ccc3c(N)ncnc32)[C@@H]1O
growth at 1 µM [1]: 80% | TGI ([2]; read-out: TGI): 5.56 µM | GI50 ([2]; read-out: pGI50 (converted)): 2.04 µM | CC50 [2, 32]: 22.9 µM | TGI ([2]; read-out: pTGI (converted)): 5.62 µM | growth at 0.01 µM [3]: 86% | growth at 1 µM [4]: 86% | growth at 100 µM [5]: -32% | growth at 0.1 µM [6]: 104% | growth at 1 µM [7]: 69% | growth at 1 µM [8]: 88% | growth at 0.01 µM [9]: 92% | TGI ([10]; read-out: TGI): 7.28 µM | GI50 ([10]; read-out: pGI50 (converted)): 0.794 µM | CC50 [10, 32]: > 100 µM | TGI ([10]; read-out: pTGI (converted)): 7.24 µM | growth at 1 µM [11]: 85% | growth at 0.01 µM [12]: 89% | growth at 1 µM [13]: 38% | growth at 10 µM [14]: -24% | growth at 100 µM [15]: -36% | TGI ([16]; read-out: TGI): 5.33 µM | GI50 ([16]; read-out: pGI50 (converted)): 1.74 µM | CC50 [16, 32]: > 100 µM | TGI ([16]; read-out: pTGI (converted)): 5.37 µM | growth at 0.01 µM [17]: 91% | growth at 1 µM [18]: 67% | growth at 0.1 µM [19]: 78% | growth at 0.01 µM [20]: 100% | growth at 10 µM [21]: -16% | growth at 10 µM [22]: -7% | growth at 0.01 µM [23]: 102% | growth at 1 µM [24]: 70% | growth at 1 µM [25]: 80% | growth at 0.01 µM [26]: 98% | growth at 1 µM [27]: 48% | TGI ([28]; read-out: TGI): 10.6 µM | GI50 ([28]; read-out: pGI50 (converted)): 0.468 µM | CC50 [28, 32]: > 100 µM | TGI ([28]; read-out: pTGI (converted)): 10.7 µM | growth at 1 µM [29]: 94% | growth at 0.01 µM [30]: 92% | growth at 1 µM [31]: 73%
